Measurements as given in patent US9073966B2, “Inhibition of sweat malodor” (Firmenich SA, priority 2005, dated 2015).

System: production of (S)-3-methyl-3-sulfanylhexan-1-ol
Assay: Screening of potentially malodor-inhibiting compounds: micro-organisms incubated with the Cys-Gly precursor, VSC quantified by GC-AED (procedure of Example 6)
Assay type: cell-based
Conditions: for inhibition of production of (S)-3-methyl-3-sulfanylhexan-1-ol: compounds added at 2 μmole
Procedure: Bacteria isolates were grown aerobically in the appropriate liquid media at 37° C. until OD600=1.0. Cells were harvested by centrifugation at 3000 g, 10 min, washed once with sterile 0.1M phosphate buffer (pH 6.0) and resuspended in fresh buffer. The concentration of individual strains incubated with the sweat precursor was between 1.10^+8 and 1.10^+10 cfu/mL. These freshly prepared bacteria (5 mL), were incubated with 0.1 mL of precursors (5 mg in 10 mL water), (or the sweat fraction, in Example 1 above), at 37° C. pH 6 in a close bottle. After the incubation time 1, 4 and 18 hours, 1 mL of ethyl acetate containing octanethiol and octadecane at 0.02 mg/mL was added and the fermentation broth was centrifuged at 16′000 g. The organic phase was directly injected on a GCSPB1 column coupled to MS and on a GCDMePeBetacdx chiral column coupled to AED detection. These experiments were repeated three times, two blanks were done with the micro-organism without the precursor and one with the precursor in the growing buffer only. No formation of sulfur compound was detected in blanks. The response factor for 1 μL injected of a solution 0.01 mg/mL of octanethiol was calculated in comparison of 1 μL injected of a racemic solution of 0.01 mg/mL of 3-methyl-3-sulphanylhexane-1-ol. The addition of both peaks areas (R/S) gave 280 (+/−5) and octanethiol 303 (+/−3) peaks surface over for injections so we used as an approximation a response factor of 1. Correlation factor for 1 μL injected on both column, were above 0.998 in the range of 1 to 10 ppm of (R/S)-3-methyl-3-sulfanylhexane-1-ol.
Micro-organisms suspended in fresh buffer (Example 5, detailed fermentation protocol) were split in two samples X and Y (negative control) of 5 mL.
[drawing 12] (obtained in Example 9) was added to sample X at a concentration of 2 μmol/L.
The samples comprising suspended micro-organisms and the compound to be screened were incubated at 37° C. for 30 min. […]
After the incubation times of 1, 4 and 18 hours, the increase of malodorous substance (compound 1 in FIG. 2) is briefly determined by sniffing of a trained person. […]
For the internal standard, the response factor for 1 μL injected of a solution 0.01 mg/mL of octanethiol was calculated in comparison of 1 μL injected of a racemic solution of 0.01 mg/mL of 3-methyl-3-sulphanylhexane-1-ol. […]
Stoichiometrically, 0.2 μmol of precursor produces 0.025 mg of VSC in 1 ml ethylacetate, if all precursor is metabolized. If less than […] of VSC is measured in sample X by the AED system, the screened compound, β-Cl-ala-gly, has the ability to reduce the development of malodor. […]

SMILES	inhibition of production of (S)-3-methyl-3-sulfanylhexan-1-ol (procedure of Example 6)	effect on formation of metabolites like compound II upon screening (compound (VII) with Z being NH)	production of (S)-3-methyl-3-sulfanylhexan-1-ol compared to the control (compound added at 2 μmole, procedure of Example 6)
C#CC[C@H](N)C(=O)NCC(=O)O [Compound VI, N-[(2S)-2-amino-4-pentynoyl]glycine]	75%		
Nc1cccc(C(=O)NCC(=O)O)c1 [Compound VII, N-[3-amino-benzoyl]glycine]		clear and confirmed increase of metabolites	increased production
N[C@@H]1C=C(C(=O)NCC(=O)O)SC1 [IIIa, N-{[(4R)-4-amino-4,5-dihydro-2-thienyl]carbonyl}glycine]	25%		
